This is an account of results in ChEMBL document CHEMBL5226323, “Targeting Nuclear Receptors in Neurodegeneration and Neuroinflammation” (J Med Chem, 2021).

For data set [1], the target named is T1, Retinoic acid receptor RXR-alpha (Homo sapiens) (UniProt P19793).
T1 sequence (whole entry): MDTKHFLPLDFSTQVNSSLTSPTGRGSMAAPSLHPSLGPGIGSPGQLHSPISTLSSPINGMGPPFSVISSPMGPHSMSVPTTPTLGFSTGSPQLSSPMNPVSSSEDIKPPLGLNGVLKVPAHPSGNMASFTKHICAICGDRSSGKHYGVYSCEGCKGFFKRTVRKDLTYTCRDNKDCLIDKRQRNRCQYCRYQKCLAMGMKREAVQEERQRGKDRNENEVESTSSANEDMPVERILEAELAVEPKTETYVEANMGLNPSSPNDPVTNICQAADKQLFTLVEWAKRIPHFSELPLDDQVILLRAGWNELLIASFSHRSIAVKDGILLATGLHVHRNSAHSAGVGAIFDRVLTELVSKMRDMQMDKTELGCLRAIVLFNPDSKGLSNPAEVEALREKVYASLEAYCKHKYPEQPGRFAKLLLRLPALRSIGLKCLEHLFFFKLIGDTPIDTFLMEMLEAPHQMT
The data set can be described thus: Agonist activity at RXRalpha (unknown origin) assessed as fold activation. To be noted: filed as agonist.

Data set [2] concerns the target T2, Retinoic acid receptor RXR-gamma (Homo sapiens) (UniProt P48443).
T2 sequence (whole entry): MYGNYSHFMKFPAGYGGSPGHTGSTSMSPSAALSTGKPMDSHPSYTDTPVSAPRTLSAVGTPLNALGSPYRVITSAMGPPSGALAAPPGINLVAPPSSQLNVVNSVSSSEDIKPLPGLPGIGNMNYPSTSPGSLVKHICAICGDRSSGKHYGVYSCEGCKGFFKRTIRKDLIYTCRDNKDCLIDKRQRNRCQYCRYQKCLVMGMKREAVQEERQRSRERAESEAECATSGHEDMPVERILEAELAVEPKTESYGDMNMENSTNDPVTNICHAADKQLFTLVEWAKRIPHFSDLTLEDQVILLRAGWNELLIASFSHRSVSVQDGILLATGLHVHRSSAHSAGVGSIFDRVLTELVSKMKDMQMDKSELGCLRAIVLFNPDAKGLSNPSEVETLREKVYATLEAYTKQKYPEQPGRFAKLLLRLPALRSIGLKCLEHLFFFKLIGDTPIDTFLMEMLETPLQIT
Put plainly: Agonist activity at RXRgamma (unknown origin) assessed as fold activation. The settings on record: filed as agonist.

The target of data set [3] is T3, Retinoic acid receptor RXR-beta (Homo sapiens) (UniProt P28702).
T3 sequence (whole entry): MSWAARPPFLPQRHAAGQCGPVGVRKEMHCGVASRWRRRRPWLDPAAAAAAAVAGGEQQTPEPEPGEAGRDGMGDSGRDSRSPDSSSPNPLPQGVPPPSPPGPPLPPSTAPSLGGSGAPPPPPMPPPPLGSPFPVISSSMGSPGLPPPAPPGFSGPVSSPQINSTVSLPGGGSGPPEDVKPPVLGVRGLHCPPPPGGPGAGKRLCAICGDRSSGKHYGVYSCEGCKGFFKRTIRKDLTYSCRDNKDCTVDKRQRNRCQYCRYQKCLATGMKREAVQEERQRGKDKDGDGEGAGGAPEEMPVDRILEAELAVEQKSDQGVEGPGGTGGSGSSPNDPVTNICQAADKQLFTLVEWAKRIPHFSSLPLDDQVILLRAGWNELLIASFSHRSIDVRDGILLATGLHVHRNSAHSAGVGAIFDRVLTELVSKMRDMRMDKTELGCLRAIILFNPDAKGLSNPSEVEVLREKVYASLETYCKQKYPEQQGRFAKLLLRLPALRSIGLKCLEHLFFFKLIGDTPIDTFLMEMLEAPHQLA
The data set can be described thus: Agonist activity at RXRbeta (unknown origin) assessed as fold activation. To be noted: filed as agonist.

Data set [4] can be described thus: Inhibition of RXR (unknown origin).
The target of data set [5] is T4, Nuclear receptor subfamily 4immunitygroup A member 1 (Homo sapiens, UniProt P22736). Put plainly: Inhibition of full length Nur77 in HEK293T cells at 50 uM relative to control. Format: cell-based.
In data set [6] the target is Nuclear receptor subfamily 4 group A member 1 (Mus musculus) (UniProt P12813). The data set can be described thus: Inhibition of full length Nur77 in mouse MN9D cells at 50 uM relative to control. Format: cell-based.
Data set [7] deals with T4, Nuclear receptor subfamily 4immunitygroup A member 1. The data set can be described thus: Agonist activity at full length Nur77 in Normal human bronchial epithelial cell assessed as fold increase of receptor transactivation at 10 uM. The class given is cell-based. The settings on record: filed as agonist.
Data set [8] shares this target. The data set can be described thus: Binding affinity to Nur77 (unknown origin) by SPR assay.
Data set [9] in a line: Antagonist activity at NFkappaB in rat RAW264.7 cells.
The target of data set [10] is T5, Nuclear receptor subfamily 2 group E member 1 (Homo sapiens, UniProt Q9Y466). The data set can be described thus: Inverse agonist activity at TLX (unknown origin).
In data set [11] the target is T5, Nuclear receptor subfamily 2 group E member 1. The data set can be described thus: Inverse agonist activity at TLX (unknown origin) assessed as fold activation. The settings on record: filed as inverse agonist.
Data set [12] deals with T6, Nuclear receptor subfamily 4 group A member 2/Retinoic acid receptor RXR-alpha (Homo sapiens, UniProt P19793+P43354). The data set can be described thus: Inhibition of full-length Nurr1-RXRalpha in human SH-SY5Y cells. Format: cell-based.
The nature of data set [13]: Half life in ip dosed mouse brain. Format: ADME, organism-based.
Data set [14] addresses T4, Nuclear receptor subfamily 4immunitygroup A member 1. Put plainly: Inhibition of Gal4-fused Nur77 in HEK293T cells. Format: cell-based.
Data set [15] is described as follows: Half life in ip dosed mouse. To be noted: in vivo. Format: ADME, organism-based.
In another data set the test system is Mus musculus. Put plainly: Anti-alzheimer activity against APP/PS1 mouse assessed as decrease in A-beta levels in hippocampus at 100 mg/kg, po measured after 14 days by ELISA analysis relative to control. More on the design: scale not given: the % may be the effect or the level left. The settings on record: time 14 day. Format: functional. On the technique in general: An ELISA detects its analyte on a solid surface through an enzyme-linked reagent.

The target in data set [16] is T7, Retinoic acid receptor RXR-beta (Homo sapiens, UniProt P28702).
T7 sequence (P28702 whole entry): T3 sequence (whole entry)
Put plainly: Inhibition of RXRbeta (unknown origin).

The target in data set [17] is T8, Retinoic acid receptor RXR-gamma (Homo sapiens, UniProt P48443).
T8 sequence (P48443 whole entry): T2 sequence (whole entry)
Put plainly: Inhibition of RXRgamma (unknown origin).

Data set [18] deals with T9, Retinoic acid receptor RXR-alpha (Homo sapiens, UniProt P19793).
T9 sequence (P19793 whole entry): T1 sequence (whole entry)
Put plainly: Inhibition of RXRalpha (unknown origin).

The target of data set [19] is T9, Retinoic acid receptor RXR-alpha. The data set can be described thus: Antagonist activity at RXRalpha (unknown origin).
For another data set, the species on record is Homo sapiens. Put plainly: Selectivity ratio of IC50 for Nurr1-RXRalpha (unknown origin) to IC50 for RXRalpha (unknown origin) by BRET assay. A general note: BRET reads energy transfer from a luciferase to a nearby fluorophore.
Data set [20] has as its target T6, Nuclear receptor subfamily 4 group A member 2/Retinoic acid receptor RXR-alpha. Put plainly: Inhibition of Nurr1-RXRalpha (unknown origin) by BRET assay. The class given is protein-complex assay.
The target of data set [21] is T9, Retinoic acid receptor RXR-alpha. Put plainly: Inhibition of RXRalpha (unknown origin) by BRET assay.

T4 sequence (P22736 whole entry): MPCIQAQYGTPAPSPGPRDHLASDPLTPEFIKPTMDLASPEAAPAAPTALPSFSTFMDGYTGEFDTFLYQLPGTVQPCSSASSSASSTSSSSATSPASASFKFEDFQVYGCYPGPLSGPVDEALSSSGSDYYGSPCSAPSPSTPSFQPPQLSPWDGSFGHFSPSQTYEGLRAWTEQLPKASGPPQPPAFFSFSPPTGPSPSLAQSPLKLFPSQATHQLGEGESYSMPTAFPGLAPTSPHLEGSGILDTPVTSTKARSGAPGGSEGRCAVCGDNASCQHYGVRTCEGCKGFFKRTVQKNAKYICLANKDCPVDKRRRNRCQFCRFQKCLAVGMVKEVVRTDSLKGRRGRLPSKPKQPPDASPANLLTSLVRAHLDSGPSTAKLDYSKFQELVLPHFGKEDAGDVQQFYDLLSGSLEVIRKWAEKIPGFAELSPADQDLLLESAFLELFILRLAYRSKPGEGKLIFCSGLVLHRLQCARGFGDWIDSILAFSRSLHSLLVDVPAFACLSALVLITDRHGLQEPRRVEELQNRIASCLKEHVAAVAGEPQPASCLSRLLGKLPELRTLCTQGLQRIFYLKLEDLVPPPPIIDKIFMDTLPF
T5 sequence (Q9Y466 whole entry): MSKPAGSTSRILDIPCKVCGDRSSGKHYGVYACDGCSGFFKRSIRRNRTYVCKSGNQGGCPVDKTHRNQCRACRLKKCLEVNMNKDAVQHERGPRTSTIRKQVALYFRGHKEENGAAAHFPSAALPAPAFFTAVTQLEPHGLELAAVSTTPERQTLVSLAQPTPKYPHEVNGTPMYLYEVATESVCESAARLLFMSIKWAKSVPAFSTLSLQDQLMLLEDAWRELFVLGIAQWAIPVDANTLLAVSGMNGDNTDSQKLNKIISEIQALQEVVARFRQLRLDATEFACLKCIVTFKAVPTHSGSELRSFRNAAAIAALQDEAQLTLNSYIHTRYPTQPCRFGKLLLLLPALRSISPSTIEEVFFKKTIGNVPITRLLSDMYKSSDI
T6 sequence (P43354 whole entry, one chain of several): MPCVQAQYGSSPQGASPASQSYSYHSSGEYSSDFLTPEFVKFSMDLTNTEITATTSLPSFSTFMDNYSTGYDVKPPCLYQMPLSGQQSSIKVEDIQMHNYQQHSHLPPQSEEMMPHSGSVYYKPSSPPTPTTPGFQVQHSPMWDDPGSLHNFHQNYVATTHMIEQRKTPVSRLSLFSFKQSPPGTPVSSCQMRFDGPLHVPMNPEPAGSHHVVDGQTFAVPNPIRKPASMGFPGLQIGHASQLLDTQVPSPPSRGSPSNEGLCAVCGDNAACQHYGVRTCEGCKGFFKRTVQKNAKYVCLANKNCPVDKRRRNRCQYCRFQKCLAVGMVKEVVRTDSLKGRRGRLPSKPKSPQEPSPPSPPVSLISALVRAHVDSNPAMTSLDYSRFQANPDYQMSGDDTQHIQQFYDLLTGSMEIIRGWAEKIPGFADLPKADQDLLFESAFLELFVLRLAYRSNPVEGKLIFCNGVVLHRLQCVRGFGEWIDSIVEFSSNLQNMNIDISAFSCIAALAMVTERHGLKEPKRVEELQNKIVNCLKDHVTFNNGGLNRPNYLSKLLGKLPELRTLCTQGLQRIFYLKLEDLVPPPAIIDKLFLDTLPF
Chain of Nuclear receptor subfamily 4 group A member 1 (Mus musculus) (P12813 whole entry): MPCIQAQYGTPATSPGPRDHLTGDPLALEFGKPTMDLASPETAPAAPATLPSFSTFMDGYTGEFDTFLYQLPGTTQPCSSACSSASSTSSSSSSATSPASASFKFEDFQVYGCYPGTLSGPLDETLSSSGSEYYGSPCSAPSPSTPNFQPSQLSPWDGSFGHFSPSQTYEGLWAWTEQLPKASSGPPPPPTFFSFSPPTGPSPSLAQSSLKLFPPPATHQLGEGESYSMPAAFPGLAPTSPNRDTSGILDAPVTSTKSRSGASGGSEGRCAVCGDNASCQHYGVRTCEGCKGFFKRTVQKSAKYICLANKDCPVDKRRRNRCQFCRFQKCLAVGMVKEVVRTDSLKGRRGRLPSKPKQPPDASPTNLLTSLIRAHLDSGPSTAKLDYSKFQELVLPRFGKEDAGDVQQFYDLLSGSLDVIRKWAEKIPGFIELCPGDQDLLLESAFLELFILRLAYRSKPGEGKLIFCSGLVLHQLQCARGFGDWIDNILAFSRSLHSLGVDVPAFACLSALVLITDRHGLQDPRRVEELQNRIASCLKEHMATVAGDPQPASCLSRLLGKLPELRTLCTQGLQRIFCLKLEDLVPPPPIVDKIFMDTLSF

Turning to `CC1=C2[C@H](/C=C(\C)C(=O)O)CC[C@@H](C)[C@H]2CC1`, the fold change (FC) in [1] is 9; in data set [2], 4; in data set [3], 69.
Compound `Cc1cc2c(cc1C1(c3ccc(C(=O)O)cn3)CC1)C(C)(C)CCC2(C)C` showed an EC50 in [4] of 3 nM.
As for `CC/C=C\C/C=C\C/C=C\C/C=C\C/C=C\C/C=C\CCC(=O)O`, the inhibition in [5] and in data set [6] was 25% throughout.
On to `CCCCC[C@H](O)/C=C/[C@H]1C=CC(=O)[C@@H]1C/C=C\CCCC(=O)O` [PROSTAGLANDIN A2], for which, in [7], the fold change (FC) was found to be 15. The compound further displayed a dissociation constant (Kd) in [8] of 2050 nM.
For `CCCCCCCCC(=O)c1c(O)cc(O)cc1CC(=O)OCCCCC`, in data set [9], half-maximal inhibition (IC50) required 1600 nM.
On to `CC1(C)CC=C(c2ccccc2)c2cc(/C=C/c3ccc(C(=O)O)cc3)ccc21`, for which, in data set [10], a half-maximal effect (EC50) was put at 200 nM. Also, the fold change (FC) in data set [11] is 5.
For `Cc1ccc(Cl)c(Nc2ccccc2C(=O)O)c1Cl` [MECLOFENAMIC ACID], the EC50 in [12] turned out to be 900 nM; in data set [14] it was 4700 nM. Also, the half-life in data set [13] and in [15] was 1.5 h in each case.
As for `C=C(c1ccc(C(=O)O)cc1)c1cc2c(cc1C)C(C)(C)CCC2(C)C` [BEXAROTENE], the Activity in the data set on Mus musculus is reported as 75%.
For the compound `CCN(c1ccc(C(=O)O)cc1)c1ccc(C(C)C)c(OC(C)C)c1`, the figures for the EC50 in [16], in data set [17] and in [18] were 36 nM, 376 nM and 32 nM, respectively.
With `CCCCCOc1cc2c(cc1-c1cc(CCC(=O)O)ccc1O)C(C)(C)CCC2(C)C`, the EC50 in data set [19] amounted to 240 nM.
`CCN(c1ccc(C(=O)O)cc1)c1ccc(C(C)C)c(OCC(C)C)c1`: the EC50 in [16] amounted to 23 nM; in [17], 3 nM; in [18], 0.58 nM.
As to `CC(C)c1cccc(-c2cc(/C=C/C(=O)O)ccc2O)c1`, the Ratio IC50 in the data set listed under Homo sapiens was found to be 25. The response in data set [20] was half-maximal at 0.794 nM (EC50). Besides, the inhibition in data set [20] (concentration not given here) is 129%. This compound also came in with a pEC50 in data set [21] of 7.7.
In data set [10], `O=C(O)c1ccc(-c2ccc3cc(O)c(C45CC6CC(CC(C6)C4)C5)cc3c2)cc1` gave an EC50 of 200 nM.
Compound `CC1=C(/C=C/C(C)=C/C=C/C(C)=C/C=O)C(C)(C)CCC1` [RETINAL] had a 50% effective concentration (EC50) in data set [10] of 200 nM. In data set [11], the fold change (FC) came to 4.

A word on the EC50: it is the concentration at which the effect is half-maximal. What is called inhibition is the relative decrease from the control value, in per cent. The term Kd denotes the constant that tells how readily two partners part at equilibrium. For orientation: IC50 means the point on the concentration scale where inhibition reaches its midpoint. As usually defined, the half-life is the time in which the quantity being followed falls by half. Usually pEC50 stands for −log10 of the EC50, conventionally taken in molar units.
